From PubChem BioAssay (NCI)
Several values for one entry are separate records, joined by “and”; a condition that tells them apart may be missing. Identical values can stand only once.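 Briefly, cells in 96-well plates were exposed to five compound concentrations for 48 h, and endpoints were estimated by linear interpolation. GI50: concentration for 50% inhibition of growth. TGI: concentration producing complete growth inhibition.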

Experiments:
Test in all cases: NCI-60 cell line screen, 48 h
A498 renal = system: A498 renal
SF-268 CNS = system: SF-268 CNS
UACC-62 melanoma = system: UACC-62 melanoma
RXF 393 renal = system: RXF 393 renal
SK-OV-3 ovarian = system: SK-OV-3 ovarian
MOLT-4 leukemia = system: MOLT-4 leukemia
HS 578T breast = system: HS 578T breast
OVCAR-5 ovarian = system: OVCAR-5 ovarian
TK-10 renal = system: TK-10 renal
NCI-H23 lung = system: NCI-H23 lung
NCI-H226 lung = system: NCI-H226 lung
COLO 205 colon = system: COLO 205 colon
SF-539 CNS = system: SF-539 CNS
MALME-3M melanoma = system: MALME-3M melanoma

SMILES	TGI (A498 renal)	TGI (SF-268 CNS)	TGI (UACC-62 melanoma)	TGI (RXF 393 renal)	TGI (SK-OV-3 ovarian)	TGI (MOLT-4 leukemia)	TGI (HS 578T breast)	TGI (OVCAR-5 ovarian)	TGI (TK-10 renal)	TGI (NCI-H23 lung)	TGI (NCI-H226 lung)	TGI (COLO 205 colon)	TGI (SF-539 CNS)	TGI (MALME-3M melanoma)	GI50 (A498 renal)	GI50 (UACC-62 melanoma)	GI50 (RXF 393 renal)	GI50 (MALME-3M melanoma)	GI50 (TK-10 renal)	GI50 (NCI-H226 lung)
CC1=NN(c2nc(N)nc(CCl)n2)C(C)(C)C1	> 84.4 µM	68 µM	32.5 µM	> 100 µM	> 100 µM	50 µM	> 100 µM	> 78 µM	> 100 µM	28.6 µM	> 100 µM	> 58 µM	34 µM							
COC(=O)/C=C1/OC(c2ccccc2)=C(Br)C1=O	> 100 µM	> 100 µM	> 100 µM	> 100 µM	> 100 µM	> 100 µM		> 100 µM	> 100 µM	> 100 µM	> 100 µM	> 100 µM	> 100 µM	> 100 µM						
O=C(O)CNc1ncc2c(n1)-c1ccccc1OC2		> 100 µM	> 100 µM	> 100 µM	> 100 µM	> 100 µM	> 100 µM	> 100 µM	> 100 µM	> 100 µM		> 100 µM	> 100 µM	> 100 µM						
O=C(NC1C(=O)NC(CCc2ccccc2)NC1=O)OCc1ccccc1 (stereo not given)	> 100 µM	> 100 µM	> 100 µM	> 100 µM		> 100 µM		> 100 µM	> 100 µM	> 100 µM	> 100 µM	> 100 µM	> 100 µM	> 100 µM						
COc1cc2c(c(OC)c1OC)[C@@H]1CCCCC[C@@H]1CCC2=O	> 100 µM	> 100 µM	> 100 µM	> 100 µM	> 100 µM	> 64.7 µM		> 100 µM	> 100 µM	> 100 µM	> 100 µM	> 77.3 µM	> 100 µM	> 100 µM						
O=C1C[C@@H]2[C@@H](C=CC23CCCC3)N1O	> 100 µM	> 100 µM	> 100 µM	> 100 µM	> 100 µM	> 100 µM		> 100 µM	> 100 µM	> 100 µM	> 100 µM	> 100 µM	> 100 µM	> 100 µM						
O=C(O)C(Cc1ccc(O)cc1)N=Cc1nc(-c2ccccc2)oc1O (stereo not given)	> 100 µM	> 100 µM		> 100 µM	> 100 µM			> 100 µM	> 100 µM	> 100 µM	> 100 µM	> 100 µM	> 100 µM	> 100 µM						
C=Cc1c(-c2ccccc2)cnc2[nH]c3ccccc3c12	> 50 µM	> 50 µM	> 50 µM	> 50 µM	> 50 µM	> 50 µM		> 50 µM	> 50 µM	> 50 µM		> 50 µM		> 50 µM						
COC(=O)c1c(C)c2c(c(C)c1O)OC(=O)c1c(C)cc(O)c(C=O)c1O2		> 100 µM	> 100 µM	> 100 µM	> 100 µM	> 100 µM	> 100 µM	> 100 µM	> 100 µM	> 100 µM	> 100 µM	> 100 µM	> 100 µM	> 100 µM						
CN(C)/C=N/S(=O)(=O)c1nn2c(C=O)c(-c3ccc(-c4ccccc4)cc3)nc2s1	47.5 µM	6.23 µM	6.45 µM	4.49 µM	36.2 µM			25.3 µM	3.83 µM	4.55 µM	32.4 µM		7.54 µM	2.71 µM						
COc1cc(CNc2ccc(C)cc2)cc(OC)c1OC	> 74.2 µM	> 90.3 µM	> 100 µM		0.825 µM and 1.3 µM	> 100 µM		> 100 µM	> 100 µM	3.08 µM		0.385 µM and 1.11 µM		> 100 µM	> 37.5 µM	0.12 µM and 0.57 µM	0.239 µM	0.276 µM and 0.658 µM	4.28 µM	0.284 µM and 0.72 µM
COc1cc(C(C)c2cc3c(cc2OCCCCCOc2cc4c(cc2C(C)c2cc(OC)c(OC)c(OC)c2)OCO4)OCO3)cc(OC)c1OC (stereo not given)	> 100 µM	> 100 µM	> 100 µM	> 100 µM		> 100 µM		> 100 µM		> 100 µM	> 100 µM		> 100 µM	> 100 µM						
COc1cccc(C2c3cc4c(cc3OC(N3CCCC3)C2c2ccccc2)OCO4)c1O (stereo not given)		46.4 µM	47.2 µM			21.5 µM	8.53 µM	75.2 µM	73.6 µM	36.2 µM		27.3 µM	21.7 µM							
NC(=S)N/N=C1\CCc2ccccc2C1	> 100 µM	> 100 µM	> 100 µM	> 100 µM	> 100 µM	> 100 µM		> 100 µM	> 100 µM	> 100 µM	> 100 µM	> 100 µM	> 100 µM	> 100 µM						
COc1c(O)ccc(/C=N/NC(=S)NCOCCOC(C)=O)c1OC	> 100 µM	> 100 µM	> 100 µM	> 100 µM	> 100 µM			> 100 µM	> 100 µM	> 100 µM	> 100 µM	> 100 µM	> 100 µM	> 100 µM						
Cc1ccccc1-n1c(=O)nc2n(-c3ccc(C(C)(C)C)cc3)c3ccccc3cc-2c1=O	86.6 µM	83.2 µM	41 µM	39 µM		55.1 µM	79.7 µM	63.6 µM	> 100 µM	58.2 µM	38.2 µM	41.6 µM	36 µM							
Cc1nsc2cc(Cl)n(C)c(=O)c12	> 100 µM	> 100 µM		> 100 µM	> 100 µM	> 100 µM		> 100 µM	> 100 µM	> 100 µM	> 100 µM	> 100 µM	> 100 µM	> 100 µM						
c1ccc(Nc2nnc(-c3ccccc3Nc3ccccc3-c3nnc(Nc4ccccc4)s3)s2)cc1		> 100 µM	> 100 µM	> 100 µM		> 100 µM		> 100 µM	> 100 µM	> 100 µM	> 100 µM	> 100 µM	> 100 µM	> 100 µM						
COc1cc(Br)c(/C=N/N=C(\N)NO)cc1OC	78.9 µM	30.6 µM	32.3 µM	54.4 µM	68.8 µM	> 100 µM		> 100 µM	> 100 µM	69 µM	31.5 µM	25.6 µM	58.7 µM	60.2 µM						
COc1cc(Br)c(C=Nc2cccc3ccc(OS(=O)(=O)c4ccc([N+](=O)[O-])cc4)cc23)cc1OC	> 100 µM	> 100 µM	> 100 µM	> 100 µM	> 100 µM	> 100 µM		> 100 µM		> 100 µM	> 100 µM	> 100 µM	> 100 µM	> 100 µM						
CC1(C)COC(c2cccc(C(=O)c3ccccc3)c2)=N1		> 100 µM	> 100 µM		> 100 µM	75.9 µM		> 100 µM	> 100 µM	> 100 µM		> 100 µM		> 100 µM						
COC(=O)C(C(=O)C(=O)Nc1nc2ccc(OC)cc2s1)c1cnc2ccccc2n1 (stereo not given)	> 100 µM	> 100 µM	> 100 µM	> 100 µM	> 100 µM	> 100 µM		> 100 µM	> 100 µM	> 100 µM	> 100 µM	> 100 µM	> 100 µM	> 100 µM						
CCCCCCCCCCCC(=O)OCC(O)CO (stereo not given)	> 100 µM	> 100 µM	> 100 µM		> 100 µM	> 100 µM	> 100 µM	> 100 µM	> 100 µM	> 100 µM	> 100 µM	> 100 µM	> 100 µM							
N#Cc1ccc(N=NN2CCCC2)cc1	> 100 µM	> 100 µM	> 100 µM	> 100 µM	> 100 µM	> 100 µM	> 100 µM	> 100 µM	> 100 µM	> 100 µM	> 100 µM	> 100 µM	> 100 µM							
NNC(=O)c1cc(Cl)ccc1NC(=O)C12CC3CC(CC(C3)C1)C2		89.5 µM	> 100 µM	> 100 µM	> 100 µM	> 100 µM	> 100 µM	53.9 µM	> 100 µM	> 100 µM	> 100 µM	> 100 µM	> 100 µM	68.6 µM						
CC[n+]1c(/C=C/c2cc(C(=O)OC)n3c2sc2ccccc23)sc2ccccc21		42.2 µM	30.9 µM		34 µM	33.9 µM		37.3 µM			45.1 µM	65.8 µM	33.8 µM	33 µM						
Nc1ccc(C(=O)NN2C(=O)C(Cl)C2c2ccc(O)cc2)cc1 (stereo not given)	56.5 µM	27 µM	29.1 µM		46.1 µM	37.8 µM		46.6 µM	> 100 µM	35.2 µM	57.3 µM	33.4 µM	34.3 µM	32.9 µM						
O=C(CC(=O)n1nc(-c2ccccc2)c(N=Nc2ccc([N+](=O)[O-])cc2)c1-c1ccccc1)Nc1ccc(Cl)cc1		> 100 µM	> 100 µM	51.3 µM	42.3 µM	> 100 µM		> 100 µM	69.1 µM	> 100 µM	70 µM	34.9 µM	75.8 µM	> 100 µM						
